Results reported in patent publication US9475783B2, “Antimicrobial agents” (Rutgers, the State University of New Jersey, priority 2012, dated 2016).
In brackets after ≈: the same amount, converted by molar mass.

Test system: MSSA
Assay: Test A antibacterial assay, broth microdilution MIC
Type: cell-based
Conditions: Staphylococcus aureus, growth read after 24 to 48 hours at OD 600 nm
Experimental: Test A. Antibacterial Assay. Antibacterial activity can be determined as per Clinical and Laboratory Standards Institute (CLSI) guidelines using a broth microdilution assay in which log-phase bacteria are grown at 37° C. in appropriate medium containing two-fold serial dilutions of a compound to yield final concentrations ranging from 256 to 0.06 μg/mL. For determination of minimal inhibitory concentration (MIC) values, bacterial growth is monitored after 24 to 48 hours by measuring optical density at 600 nm.
In the case of `CCN(CC)CNC(=O)c1c(Cl)ccc(OCc2nc3cc(Cl)ccc3s2)c1F` [Example 42], the MIC is reported as 2 µg/mL (≈ 4.38 µM). With `CN(C)CNC(=O)c1c(F)ccc(OCc2nc3cc(Cl)cnc3s2)c1F` [Example 6] the MIC was 0.25 µg/mL (≈ 0.606 µM). With `CC1CCN(CNC(=O)c2c(F)ccc(OCc3nc4cc(Cl)cnc4s3)c2F)CC1` [Example 17] the MIC was 0.5 µg/mL (≈ 1.07 µM). In the case of `Cc1csc(COc2ccc(F)c(C(=O)NCN(C)C)c2F)n1` [Example 46], the MIC is reported as 8 µg/mL (≈ 23.4 µM). Compound `COc1ccc(CN(C)CNC(=O)c2c(F)ccc(OCc3nc4cc(Cl)cnc4s3)c2F)cc1` [Example 11] has an MIC of 1 µg/mL (≈ 1.93 µM). In the case of `CCN(CC)CNC(=O)c1c(F)ccc(OCc2nc3cc(Cl)cnc3s2)c1F` [Example 16], the MIC is reported as 0.5 µg/mL (≈ 1.13 µM). With `COc1ccc(CN(C)CNC(=O)c2c(F)ccc(OCc3nc4cc(Cl)ccc4o3)c2F)cc1` [Example 26] the MIC was 16 µg/mL (≈ 31.9 µM). For `Cc1nc(COc2ccc(F)c(C(=O)NCN(C)C)c2F)sc1-c1ccc(C(C)(C)C)cc1` [Example 34], the MIC was 0.125 µg/mL (≈ 0.264 µM). `C/C(=N\C(=O)c1c(F)ccc(OCc2nc3cc(Cl)ccc3s2)c1F)N(C)C` [Example 44] showed an MIC of 2 µg/mL (≈ 4.72 µM). For `CN1CCN(C(NC(=O)c2c(F)ccc(OCc3nc4cc(Cl)cnc4s3)c2F)c2ccccc2)CC1` (stereo not drawn) [Example 32], the MIC was 0.5 µg/mL (≈ 0.919 µM). In the case of `O=C(NCN1CCOCC1)c1c(F)ccc(OCc2nc3cc(Cl)cnc3s2)c1F` [Example 7], the MIC is reported as 0.5 µg/mL (≈ 1.1 µM). `Cc1nc(COc2ccc(F)c(C(=O)NCN(C)C)c2F)sc1-c1ccncc1` [Example 1] gave an MIC greater than 64 µg/mL. With `C#CCN(C)CNC(=O)c1c(F)ccc(OCc2nc3cc(Cl)ccc3s2)c1F` [Example 39] the MIC was 0.25 µg/mL (≈ 0.574 µM). With `CN(C)CNC(=O)c1c(F)ccc(OCc2nc3cc(Cl)ccc3s2)c1F` [Example 4] the MIC was 0.125 µg/mL (≈ 0.304 µM). `O=C(NC(c1ccccc1)N1CCOCC1)c1c(F)ccc(OCc2nc3cc(Cl)ccc3s2)c1F` (stereo not drawn) [Example 28] showed an MIC of 0.25 µg/mL (≈ 0.472 µM). With `Cc1nc(COc2ccc(F)c(C(=O)NCN(C)Cc3ccc(C(F)(F)F)cc3)c2F)sc1-c1ccc(C(C)(C)C)cc1` [Example 35] the MIC was greater than 64 µg/mL. In the case of `CCN(CC)CNC(=O)c1c(F)ccc(OCc2nc3cc(Cl)ccc3o2)c1F` [Example 24], the MIC is reported as 8 µg/mL (≈ 18.9 µM). Work on `CN1CCN(C(NC(=O)c2c(F)ccc(OCc3nc4cc(Cl)ccc4s3)c2F)c2cccc(Br)c2)CC1` (stereo not drawn) [Example 31] yielded an MIC of 0.5 µg/mL (≈ 0.804 µM). For `CC1CCN(CNC(=O)c2c(F)ccc(OCc3nc4cc(Cl)ccc4s3)c2F)CC1` [Example 18], the MIC was 0.25 µg/mL (≈ 0.537 µM). Compound `CN(C)/C=N/C(=O)c1c(F)ccc(O/C(=C/N(C)C)c2nc3cc(Cl)ccc3s2)c1F` [Example 45] has an MIC of 32 µg/mL (≈ 68.8 µM). `Cc1ccc(CN(C)CNC(=O)c2c(F)ccc(OC(C)c3nc(C)c(-c4ccc(C(C)(C)C)cc4)s3)c2F)cc1` (stereo not drawn) [Example 20] gave an MIC of 1 µg/mL (≈ 1.73 µM).

Test system: Bacillus subtilis FG347 bacteria
Assay: Test C FtsZ Z-ring assay (GFP-ZapA fluorescence microscopy)
Type: cell-based
Conditions: compound at 3 μg/mL
Experimental: Test C. FtsZ Z-Ring Assay.
The impact of a compound on FtsZ Z-ring formation can be determined using a strain of Bacillus subtilis (FG347) that expresses a green fluorescent protein (GFP)-ZapA fusion protein upon induction with xylose. ZapA is known to associate with FtsZ Z-rings in B. subtilis and, thus, serves as a marker for Z-ring formation. In this assay, log-phase FG347 bacteria are treated with differing concentrations of compound for time periods ranging from 1 to 6 hours. At each time point, aliquots are taken from each culture and then viewed with a fluorescence microscope.
Examples 4 and 6-8 were evaluated for their impact on the polymerization of Staphylococcus aureus FtsZ. […] In addition, Example 5 and 7 were also examined for their impact on FtsZ Z-ring formation in Bacillus subtilis FG347 bacteria. […] These collective results highlight the compounds of the invention as FtsZ-targeting antibacterial agents.
In the case of `O=C(NCN1CCOCC1)c1c(F)ccc(OCc2nc3cc(Cl)cnc3s2)c1F` [Example 7], the bacterial morphology induced is reported as “elongated, filamentous morphology” and the “impact on FtsZ Z-ring formation” value is reported as “inhibit FtsZ Z-ring formation”.

Test system: not listed separately
Assay: Test D formulation of test compounds (solubility in vehicles)
Type: physicochemical
Conditions: 10 mM citrate alone
Experimental: Test D. Formulation of Test Compounds.
The literature vehicle reported for formulation of 5-chloro-2-(2,4-difluoro-3-aminocarbonylphenoxy)methylpyridylthiazole for i.v. administration consists of 20% DMA, 40% polyethylene glycol and 40% saline. […] Mice that were treated 15 minutes later with a second injection consisting of 150 μl of this vehicle died. In addition, concentrations of 5-chloro-2-(2,4-difluoro-3-aminocarbonylphenoxy)methylpyridylthiazole at or above 2.2 mg/ml in this vehicle were not completely dissolved and existed as a suspension (in a 28 g mouse this would be 15.7 mg/kg). A number of other formulations with 5-chloro-2-(2,4-difluoro-3-aminocarbonylphenoxy)methyl […] were tried, such as 20% DMA, 40% proplyeneglycol in 8% Cremophor-EL. […] Because of the limited solubility and the absence of a suitable vehicle, the literature study where it was reported that a 30 mg/kg dose of 5-chloro-2-(2,4-difluoro-3-aminocarbonylphenoxy)methylpyridylthiazole was delivered to mice in a single injection could not be repeated. […] In some instances the addition of 10-30% propylene glycocol did allow for greater retention of solubility of the test compounds. Example 4 was also found to formulate well at a 2.0 mg/ml concentration in 10 mM malic acid with 20% propylene glycol and with 10 mM p-toluenesulphonate alone. Example 6 did formulate well in 10 mM citrate alone at a concentration of 2.0 mg/ml. […] The ability of mice to tolerate this vehicle did allow for multiple dosing in the assessment of Example 6 in vivo and to actually deliver higher doses of the Example 6 because of the compatibility of a predominately aqueous vehicle.
Work on `CN(C)CNC(=O)c1c(F)ccc(OCc2nc3cc(Cl)cnc3s2)c1F` [Example 6] yielded a concentration formulated well of 2000 µg/mL.

Same assay, conditions: 10 mM malic acid with 20% propylene glycol
For `CN(C)CNC(=O)c1c(F)ccc(OCc2nc3cc(Cl)ccc3s2)c1F` [Example 4], the concentration formulated well was 2000 µg/mL.

Same assay, conditions: 10 mM p-toluenesulphonate alone
Compound `CN(C)CNC(=O)c1c(F)ccc(OCc2nc3cc(Cl)ccc3s2)c1F` [Example 4] has a concentration formulated well of 2000 µg/mL.

Same assay, conditions: 10 mM solutions of citrate, methane sulfonate, p-toluene sulphonate, phosphoric acid, and tartaric acid
Compound `CN(C)CNC(=O)c1c(F)ccc(OCc2nc3cc(Cl)cnc3s2)c1F` [Example 6] has a concentration readily formulated of 2000 µg/mL. For `CN(C)CNC(=O)c1c(F)ccc(OCc2nc3cc(Cl)ccc3s2)c1F` [Example 4], the concentration readily formulated was 2000 µg/mL.

Test system: MSSA (S. aureus)
Assay: Test E in vivo efficacy, murine septicemia model of staphylococcal infection
Conditions: MSSA-infected mice, i.v. tail vein, four doses at 15 minute interval in 10 mM citrate; 24 h monitoring
Experimental: Test E. In Vivo Efficacy in the Mouse Peritonitis or Mouse Septicemia Model.
Assessment of in vivo efficacy was performed using femal Swiss Webster mice (obtained from Taconic Farms, Germantown, Pa.) employing a murine septicemia model of staphylococcal infection. For bioassays examining efficacy against MSSA, each mouse was inoculated intraperitoneally with 500 μl of an inoculum containing 1.0×10^8 CFU per ml of S. aureus. All of the in vivo efficacy studies include a negative control group of infected mice treated intravenously either with vehicle alone (6 mice) or untreated (6 mice), as well as a positive control groups of infected mice treated with 200 ul of […] of vancomycin administered intravenously (4 mice) and a second control group using 2.0 mg/ml of oxacillin (4 mice). After the mice were infected, groups of six mice are treated by tail vein injection with 300 ul of a solution containing 2.0 mg of Example 6 in 10 mM citrate. Mice received four doses Example 6 administered with a 15 minute interval. Control mice are treated with vancomycin qd, oxacillin b.i.d, or vehicle alone. […] Animals are given food and water ad libitum. Survival within each experimental group is monitored over a 24 hout time period. Monitoring of the mice began 4 hours after the start of experiment. All of the effective mice treated with Example 6 survived the infection (5/5, 100% survival). All of the oxacillin-treated (4/4) and vancomycin-treated mice (4/4) survived the infection. All of the vehicle controls died within 12 hours, with 0/6 or 0% survival. Among the infected mice that receive no treatment, only 1/6 survived (16.7% survival).
Compound `CN(C)CNC(=O)c1c(F)ccc(OCc2nc3cc(Cl)cnc3s2)c1F` [Example 6] has a survival of 100%.

Same assay, conditions: MSSA-infected mice, i.v. treatment; 24 h monitoring
With `Cc1onc(-c2ccccc2)c1C(=O)N[C@@H]1C(=O)N2[C@@H]1SC(C)(C)[C@@H]2C(=O)O` [oxacillin, reference compound] the “mice surviving the infection / mice” value was 4/4. With `CN(C)CNC(=O)c1c(F)ccc(OCc2nc3cc(Cl)cnc3s2)c1F` [Example 6] the “mice surviving the infection / mice” value was 5/5. With `CN[C@H](CC(C)C)C(=O)N[C@H]1C(=O)N[C@@H](CC(N)=O)C(=O)N[C@H]2C(=O)N[C@H]3C(=O)N[C@H](C(=O)N[C@H](C(=O)O)c4cc(O)cc(O)c4-c4cc3ccc4O)[C@H](O)c3ccc(c(Cl)c3)Oc3cc2cc(c3O[C@@H]2O[C@H](CO)[C@@H](O)[C@H](O)[C@H]2O[C@H]2C[C@](C)(N)[C@H](O)[C@H](C)O2)Oc2ccc(cc2Cl)[C@H]1O` [vancomycin, reference compound] the “mice surviving the infection / mice” value was 4/4.

Same assay, conditions: group of six mice, 300 ul i.v. of 2.0 mg solution in 10 mM citrate, four doses
For `CN(C)CNC(=O)c1c(F)ccc(OCc2nc3cc(Cl)cnc3s2)c1F` [Example 6], the “death during the course of treatment” value was “One of the mice treated with Example 6 died during the course of treatment”.
